Data: patent US4663347A, “Benzofuran 2-carboxylic acid esters useful as inhibitors of leukotriene biosynthesis” (Merck Frosst Canada, Inc., priority 1985, dated 1987)
Converted amounts (≈) assume the structure as drawn.

Columns and labels:
[1] = test system: leukotriene biosynthesis (mouse peritoneal macrophages); test: Mouse Macrophage Assay (leukotriene inhibition); format: cell-based; conditions: zymosan stimulated, read-out: LEUKOTRIENE INHIBITION MACROPHAGE ED50
Procedure: Representative compounds of Formula I have been tested using the following assay to determine their mammalian leukotriene biosynthesis inhibiting activity.
Mouse peritoneal macrophages were treated sequentially with arachidonic acid (labelled with tritium); the compound being evaluated as an inhibitor, and a stimulator (zymosan). Metabolites derived from arachidonic acid (PGE2, 6-keto PG-F1α and Leukotriene C4) were separated from the incubation medium by extraction and chromatography, and then quantitated by determining the amount of radioactivity (cpm) associated with each of them. […] (This protocol is identical to that described in the reference except that the radioactivity herein associated with the LTC4 was determined by counting an aliquot of the final aqueous solution directly rather than chromatographying it first).
Reference: Humes, J. L. et al., J. Biol. Chem. 257, 1591-4 (1982).
The following table (Table II) reflects the leukotriene biosynthesis inhibiting ability of selected compounds of Formula I.

[2] = test system: PAF-induced hyperalgesia (female Sprague-Dawley rats); test: PAF-Induced Hyperalgesia Assay; format: in vivo, rat; conditions: p.o.
Procedure: PAF-Induced Hyperalgesia Assay
Female Sprague-Dawley rats, 35-40 g were fasted overnight. Platelet activating factor, PAF, (L-lecithin B-acetyl O-alkyl) 1 μg/0.1 ml was given by subplantar injection in the rat paw. The compounds to be evaluated were homogenized in Aqueous Vehicle (0.9% benzyl alcohol, 0.5% Tween 80 and 0.4% methylcellulose) and administered orally in a volume of 0.1 ml, 30 minutes prior to PAF.
Animals were tested 1, 2, 3 and 4 hours after PAF administration. The vocalization threshold, defined as the pressure (mmHg) needed to evoke a squeak response, was recorded for both the injected and contralateral paw. No animal was subjected to pressure greater than 60 mmHg. Hyperalgesia is defined as a decrease in vocalization threshold as compared to a normal paw. Percent inhibition of hyperalgesia was calculated as the proportion of animals with vocalization thresholds greater than 200% of controls.

[3] = test system: asthmatic rats; test: Asthmatic Rat Assay (duration of antigen-induced dyspnea); format: in vivo
Excerpt: Rats were obtained from an inbred line of asthmatic rats. Both female and male rats from 200 to 300 g were used.
Egg albumin (EA), grade V, crystallized and lyophilized, was obtained from Sigma Chemical Co., St. Louis, Bordetella pertussis vaccine, containing 30×10^9 killed bacteria per ml was obtained from the Institut Armand-Frappier, Laval des Rapides, Quebec. Aluminum hydroxide was obtained from the Regis Chemical Company, Chicago.
The challenge and subsequent respiratory recordings were carried out in a clear plastic box with internal dimensions 10×6×4 inches. The top of the box was removable; in use, it was held firmly in place by four clamps and an airtight seal was maintained by a soft rubber gasket. […] A Fleisch No. 0000 pneumotachograph was inserted into one end of the box and coupled to a Grass volumetric pressure transducer (PT5-A) which was then connected to a Beckman Type R Dynograph through appropriate couplers. While aerosolizing the antigen, the outlets were open and the pneumatachograph was isolated from the chamber. The outlets were closed and the pneumotachograph and the chamber were connected during the recording of the respiratory patterns. […]
Rats were sensitized by injecting (s.c.) 1 ml of a suspension containing 1 mg EA and 200 mg aluminum hydroxide in saline. […] Rats were then exposed to an aerosol of 3% EA in saline for exactly 1 minute, then their respiratory profiles were recorded for a further 25-30 minutes. The duration of continuous dyspnea was measured from the respiratory recordings.
Compounds were generally administered either intraperitoneally 1 hour prior to challenge or orally 11/2 hours prior to challenge. […] Their activity was determined in terms of their ability to decrease the duration of symptoms of dyspnea in comparison with a group of vehicle-treated controls. Usually, a compound was evaluated at a series of doses and an ED50 was determined. […]

CC(=O)Oc1cccc2oc(C(=O)Nc3ccc(Cl)cc3)c(C)c12
IC50 [1]: 0.2 µg/mL (≈ 0.582 µM)

Cc1c(C(=O)NNc2ccccc2)oc2cccc(O)c12 [drawing 91]
IC50 [1]: 1 µg/mL (≈ 3.54 µM)

Cc1c(C(=O)OC(C)(C)C)oc2cccc(O)c12 [drawing 83]
IC50 [1]: 1 µg/mL (≈ 4.03 µM)

CCOC(=O)c1oc2cccc(SC(=O)N(C)C)c2c1C
IC50 [1]: 5 µg/mL (≈ 16.3 µM)

CCOC(=O)c1oc2cccc(OC(=S)N(C)C)c2c1C
IC50 [1]: 2.5 to 5 µg/mL (≈ 8.13 to 16.3 µM)

Cc1c(C(=O)Nc2ccccc2)oc2cccc(O)c12 [drawing 90]
IC50 [1]: 1 to 5 µg/mL (≈ 3.74 to 18.7 µM)

Cc1c(C(=O)O)oc2cccc(O)c12
IC50 [1]: 5 µg/mL (≈ 26 µM)

Cc1c(C(=O)NNc2ccc(Cl)cc2)oc2cccc(O)c12 [drawing 98]
PAF HYPERALGESIA (percent inhibition of hyperalgesia) ([2]; 1 mg/kg): 60%

CCOC(=O)c1oc2cccc(OC(C)=O)c2c1C [drawing 86]
IC50 [1]: 5 µg/mL (≈ 19.1 µM)

Cc1c(C(=O)NNc2ccccc2)oc2cccc(O)c12 [drawing 97]
PAF HYPERALGESIA (percent inhibition of hyperalgesia) ([2]; 20 mg/kg): 50%

Cc1c(C(=O)OC(C)(C)C)oc2cccc(O)c12 [drawing 94]
PAF HYPERALGESIA (percent inhibition of hyperalgesia) ([2]; 10 mg/kg): 60% | ASTHMATIC RAT (% inhibition of duration of dyspnea) ([3]; 15 mg/kg, p.o.): 41%

CCOC(=O)c1oc2cccc(OC(C)=O)c2c1C [drawing 95]
PAF HYPERALGESIA (percent inhibition of hyperalgesia) ([2]; 10 mg/kg): 50% | ASTHMATIC RAT (% inhibition of duration of dyspnea) ([3]; 5 mg/kg, i.v.): 63%

CCOC(=O)c1oc2cccc(O)c2c1C [drawing 82]
IC50 [1]: 0.2 µg/mL (≈ 0.908 µM)

CC(=O)Oc1cccc2oc(C(=O)Nc3ccccc3)c(C)c12
IC50 [1]: 0.2 µg/mL (≈ 0.647 µM)

Cc1c(C(=O)Nc2ccccc2)oc2cccc(O)c12 [drawing 96]
PAF HYPERALGESIA (percent inhibition of hyperalgesia) ([2]; 1.03 mg/kg): 60%

Cc1c(C(=O)NNc2ccc(Cl)cc2)oc2cccc(O)c12 [drawing 92]
IC50 [1]: 1 µg/mL (≈ 3.16 µM)

CCOC(=O)c1oc2cccc(O)c2c1C [drawing 93]
PAF HYPERALGESIA (percent inhibition of hyperalgesia) ([2]; 10 mg/kg): 10% | ASTHMATIC RAT (% inhibition of duration of dyspnea) ([3]; 5 mg/kg, i.v.): 38%
